Patent publication US9371292B2, “Quinazoline derivative, preparation method therefor, intermediate, composition and application thereof” (SHANGHAI PHARMACEUTICALS HOLDINGS CO., LTD., priority 2011, dated 2016)
Like-named read-outs stand apart in the source and are kept apart here.

How the values were obtained:
NCI-H1975 = format: in vivo, BALB/c nude mice; details: NCI-H1975 nude mice; for Tumor volume: 60 mg/kg PO QD
Source text: Preparation method: dissolve the test compound in 20% PEG400+3% Tween80 to obtain a required concentration; dissolve the control group in 0.5% CMC+0.4% Tween80 to obtain a required concentration.
BALB/c nude mice (Shanghai xipuer-bikai experimental animals company), weight 16-18 g, female. BD matrigel, NCI-H1975 cell (ATCC)
Cells in logarithmic phase were collected. The ratio of medium to matrigel was 1:1. The concentration of cell was adjust to 3×10^7/ml and put into a ice box, then inoculated in each nude mice subcutaneously with 0.2 ml. Then carry out intragastric administration once a day for 5 days and stop administration for 2 days. Administrate for 9 days in total. Dosages are as follows:
The size and weight were measured. The length and width of tumors were measured individually with microcalipers. Tumor volume (V) and relative tumor volume (RTV) was calculated as formula. Day 12, all the nude mouse were killed and the tumors were taken out and pictured. The individual as follows: RTV=Vt/V0, where Vt is and V0 is. and the calculation formula is T/C (%)=mean RTV of the treated group/mean RTV of the control group×100%.
(1) Tumor volume (Tumor Volume, TV), calculation formula: […], wherein a and b presents length and width respectively.
(2) Relative Tumor Volume (RTV), calculation formula: RTV=Vt/V0.
Wherein TV0 is the volume on the day of initial treatment, TVt is the volume on each day of measurement.
(3) The relative tumor increment rate T/C (%), calculation formula: […]
TRTV: treated group RTV; CRTV: negative control group RTV.
Therapeutic effect of compound was expressed in terms of T/C %.

EGFR = EGFR (Homo sapiens, UniProt P00533); test: Mobility shift assay, kinase inhibition (EGFR); format: biochemical; details: read-out: Kinase inhibitory activity IC50 (nM) EGFR
Experimental: (§1) Enzyme activity assay was test by the Mobility shift assay method (Expert Opin Drug Discov. 2008, 3(6): 607-621). A 10 mM stock solution of the test compound in DMSO were made after weighing. According to the required concentration, proper quantity of the 10 mM stock solution was dissolved in water to get a work solution with a concentration 5 times the final concentration. And various kinases, EGFR, HER2, HER4 were dissolved into a reaction buffer with a concentration 1.25 times the required concentration (62.5 mM HEPES, pH7.5, 0.001875% Brij-35, 12.5 mM MgCl2, 2.5 mM DTT), and get a enzyme work solution with a concentration 2.5 times the final concentration. At the same time, ATP and FAM tag peptide substrates will be dissolved in the reaction buffer with a concentration of 1.25× to get a substrate and ATP working solution with a concentration 2.5 times the required concentration. Then 5 μl the work solution of compound is added to 384 wells test plate, 5 μl 250 mM EDTA is added to a blank control, the same volume of work solution without drug is added to the negative control (Max). 10 μl Enzyme work solution is added at the same time. After mix gently and hatch for 10 minutes at room temperature, 10 μl substrate and ATP work solution are added to each well. The test plates are placed at 28 degrees for 60 mins. Then 25 μl suspending liquid is added into each reaction well (100 mM HEPES, pH7.5, 0.015% Brij-35, 0.2% Coating Reagent#3, 50 mM EDTA) to quench the enzyme reaction. Finally, the plate is put on Caliper EZ reader to collect conversion rate of the substrate in each well (The phosphorylation ratio of the substrate caused by the kinases). Based on the data described above, the kinase inhibitory of the compound can be calculated as follows: % inh=(Max−conversion)/(Max−Min)×100, wherein % inh is percent inhibition, Max is the conversion ratio of the substrate in negative control well, min is the conversion ratio of the substrate in blank control well, conversion is the conversion rate of substrate in each well with various concentration of the test compound. The % inh value of each concentration of the test compound would be analyzed in Xlift to obtain the corresponding IC50 value, the curve fitting formula is: Y=Bottom+(Top−Bottom)/(1+10^((Log IC50−X)*Hillslope))

HER4 = HER4 (Homo sapiens, UniProt Q15303); test: Mobility shift assay, kinase inhibition (HER4); format: biochemical; details: read-out: Kinase inhibitory activity IC50 (nM) HER4
Experimental: as §1

HER2 = HER2 (Homo sapiens, UniProt P04626); test: Mobility shift assay, kinase inhibition (HER2); format: biochemical; details: read-out: Kinase inhibitory activity IC50 (nM) HER2
Experimental: as §1

HER4, sequence (Q15303 26-1308): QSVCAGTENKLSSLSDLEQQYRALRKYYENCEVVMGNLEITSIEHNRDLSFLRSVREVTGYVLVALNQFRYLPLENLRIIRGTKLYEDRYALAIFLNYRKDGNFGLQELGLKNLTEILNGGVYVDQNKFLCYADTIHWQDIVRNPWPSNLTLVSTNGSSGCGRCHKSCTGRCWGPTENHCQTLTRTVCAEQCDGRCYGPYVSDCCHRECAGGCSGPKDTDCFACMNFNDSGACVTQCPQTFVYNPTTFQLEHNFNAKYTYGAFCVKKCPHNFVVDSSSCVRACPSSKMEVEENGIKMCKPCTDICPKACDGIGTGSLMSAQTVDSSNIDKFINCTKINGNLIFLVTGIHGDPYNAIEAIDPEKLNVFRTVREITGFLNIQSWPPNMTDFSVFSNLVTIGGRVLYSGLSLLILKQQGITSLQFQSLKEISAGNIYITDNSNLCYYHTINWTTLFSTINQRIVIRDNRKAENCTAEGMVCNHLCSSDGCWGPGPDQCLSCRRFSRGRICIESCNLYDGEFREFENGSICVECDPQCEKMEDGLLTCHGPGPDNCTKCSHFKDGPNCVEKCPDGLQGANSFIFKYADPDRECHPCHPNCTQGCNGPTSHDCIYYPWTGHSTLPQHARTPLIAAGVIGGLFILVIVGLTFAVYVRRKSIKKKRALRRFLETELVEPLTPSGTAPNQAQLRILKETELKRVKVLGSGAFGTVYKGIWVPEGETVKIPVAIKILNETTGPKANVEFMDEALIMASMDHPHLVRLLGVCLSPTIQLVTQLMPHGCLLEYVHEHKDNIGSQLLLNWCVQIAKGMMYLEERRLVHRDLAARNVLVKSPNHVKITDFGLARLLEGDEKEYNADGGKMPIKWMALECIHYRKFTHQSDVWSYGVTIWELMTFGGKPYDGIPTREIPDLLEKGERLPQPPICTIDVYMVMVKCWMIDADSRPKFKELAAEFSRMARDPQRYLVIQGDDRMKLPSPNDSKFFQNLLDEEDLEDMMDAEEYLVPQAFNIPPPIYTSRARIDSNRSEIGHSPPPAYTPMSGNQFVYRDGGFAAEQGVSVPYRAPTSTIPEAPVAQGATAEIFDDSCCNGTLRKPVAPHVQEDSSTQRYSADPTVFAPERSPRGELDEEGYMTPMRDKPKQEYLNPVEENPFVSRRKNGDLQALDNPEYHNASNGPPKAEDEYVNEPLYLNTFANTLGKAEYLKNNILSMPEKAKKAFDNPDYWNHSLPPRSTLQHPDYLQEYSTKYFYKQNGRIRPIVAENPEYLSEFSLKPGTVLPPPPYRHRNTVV
EGFR, sequence (P00533 25-1210): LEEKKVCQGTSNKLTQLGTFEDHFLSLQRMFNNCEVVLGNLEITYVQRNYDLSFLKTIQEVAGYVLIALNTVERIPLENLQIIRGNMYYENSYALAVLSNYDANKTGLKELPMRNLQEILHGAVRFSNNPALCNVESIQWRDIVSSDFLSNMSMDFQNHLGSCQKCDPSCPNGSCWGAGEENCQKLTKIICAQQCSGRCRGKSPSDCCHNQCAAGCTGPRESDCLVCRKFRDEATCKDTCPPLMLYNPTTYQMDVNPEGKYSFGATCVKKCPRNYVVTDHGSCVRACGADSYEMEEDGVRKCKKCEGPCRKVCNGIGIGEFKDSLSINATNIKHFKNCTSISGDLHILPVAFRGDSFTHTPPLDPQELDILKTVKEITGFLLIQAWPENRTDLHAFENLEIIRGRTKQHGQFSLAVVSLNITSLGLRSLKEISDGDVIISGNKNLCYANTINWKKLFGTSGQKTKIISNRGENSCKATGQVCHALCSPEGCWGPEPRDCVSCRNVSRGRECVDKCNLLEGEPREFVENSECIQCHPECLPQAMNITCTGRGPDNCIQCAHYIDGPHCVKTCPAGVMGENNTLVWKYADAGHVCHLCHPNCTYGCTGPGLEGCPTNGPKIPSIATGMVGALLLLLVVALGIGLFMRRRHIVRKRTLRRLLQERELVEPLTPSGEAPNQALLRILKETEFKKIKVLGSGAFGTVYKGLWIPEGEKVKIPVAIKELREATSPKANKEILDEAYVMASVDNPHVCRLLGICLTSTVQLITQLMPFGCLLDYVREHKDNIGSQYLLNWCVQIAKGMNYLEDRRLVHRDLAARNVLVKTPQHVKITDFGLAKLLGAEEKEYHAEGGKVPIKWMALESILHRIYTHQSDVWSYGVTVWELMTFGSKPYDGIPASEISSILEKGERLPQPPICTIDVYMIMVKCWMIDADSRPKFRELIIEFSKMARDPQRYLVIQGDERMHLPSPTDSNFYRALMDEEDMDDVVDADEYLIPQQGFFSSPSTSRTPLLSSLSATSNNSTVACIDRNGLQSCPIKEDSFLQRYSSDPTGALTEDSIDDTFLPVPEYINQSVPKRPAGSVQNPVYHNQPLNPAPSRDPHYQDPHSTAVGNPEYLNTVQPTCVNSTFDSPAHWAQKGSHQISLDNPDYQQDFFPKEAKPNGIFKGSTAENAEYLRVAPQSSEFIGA
HER2, sequence (P04626 23-1255): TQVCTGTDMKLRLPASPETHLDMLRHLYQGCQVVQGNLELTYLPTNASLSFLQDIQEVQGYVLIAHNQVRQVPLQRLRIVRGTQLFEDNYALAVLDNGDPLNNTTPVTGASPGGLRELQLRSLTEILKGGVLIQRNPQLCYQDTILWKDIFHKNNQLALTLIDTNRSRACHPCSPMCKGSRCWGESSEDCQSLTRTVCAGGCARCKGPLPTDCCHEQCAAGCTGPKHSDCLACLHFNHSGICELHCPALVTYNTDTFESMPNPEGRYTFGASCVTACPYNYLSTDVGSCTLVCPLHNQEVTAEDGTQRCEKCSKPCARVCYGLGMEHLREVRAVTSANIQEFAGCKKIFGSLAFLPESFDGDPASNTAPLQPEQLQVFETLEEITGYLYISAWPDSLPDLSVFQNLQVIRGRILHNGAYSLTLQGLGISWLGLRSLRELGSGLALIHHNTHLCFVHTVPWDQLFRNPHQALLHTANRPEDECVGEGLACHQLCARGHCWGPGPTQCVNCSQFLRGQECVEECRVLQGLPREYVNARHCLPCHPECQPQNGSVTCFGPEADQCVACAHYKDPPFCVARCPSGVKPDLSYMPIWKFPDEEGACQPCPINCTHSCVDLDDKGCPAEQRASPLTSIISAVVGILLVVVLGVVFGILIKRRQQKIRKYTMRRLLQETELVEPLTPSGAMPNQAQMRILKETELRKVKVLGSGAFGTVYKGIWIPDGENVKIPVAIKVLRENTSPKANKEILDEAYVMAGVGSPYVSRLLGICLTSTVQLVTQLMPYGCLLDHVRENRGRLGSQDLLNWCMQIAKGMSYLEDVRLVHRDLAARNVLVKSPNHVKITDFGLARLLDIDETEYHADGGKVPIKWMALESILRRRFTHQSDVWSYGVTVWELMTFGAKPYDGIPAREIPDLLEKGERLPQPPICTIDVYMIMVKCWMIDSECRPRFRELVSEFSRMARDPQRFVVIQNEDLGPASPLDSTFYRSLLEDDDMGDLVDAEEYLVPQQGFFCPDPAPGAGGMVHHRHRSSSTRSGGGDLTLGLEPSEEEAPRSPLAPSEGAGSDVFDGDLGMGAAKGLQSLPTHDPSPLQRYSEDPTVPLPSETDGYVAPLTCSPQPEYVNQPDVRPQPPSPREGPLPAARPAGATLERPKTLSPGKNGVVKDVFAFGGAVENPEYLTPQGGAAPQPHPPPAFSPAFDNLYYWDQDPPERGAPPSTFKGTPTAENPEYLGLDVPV

Compound: COc1cc2ncnc(Nc3ccc(F)c(Cl)c3)c2cc1NC(=O)/C(F)=C/CN(C)C [Compound 2-1, (Z)—N-(4-((3-chloro-4-fluorophenyl)amino)-7-methoxyquinazolin-6-yl)-4-(dimethylamino)-2-fluorobut-2-enamide]
- Tumor volume (NCI-H1975; Day 0): 190 ± 17 mm^3
- Tumor volume (NCI-H1975; Day 2): 153 ± 11 mm^3
- Tumor volume (NCI-H1975; Day 4): 121 ± 27 mm^3
- Tumor volume (NCI-H1975; Day 7): 130 ± 20 mm^3
- Tumor volume (NCI-H1975; Day 9): 134 ± 27 mm^3
- Tumor volume (NCI-H1975; Day 11): 164 ± 33 mm^3
- Inhibition of growth of NCI-H1975 in nude mice (in words) (NCI-H1975; 60 mpk, 60 mg/kg): strong inhibitory
- IC50 (EGFR): 1.3 nM
- IC50 (HER4): 23 nM
- IC50 (HER2): 75 nM
